Data on 21 compounds can be found in patent publication US11161856B2 (H. Lundbeck A/S, priority 2017, dated 2021).

Molecules are shown by their SMILES.

One experiment addresses T1, MGLL (Mus musculus, UniProt O35678).
T1 construct: Brain; from tissue; host or cells: mouse brain proteome
T1 sequence (O35678 1-303): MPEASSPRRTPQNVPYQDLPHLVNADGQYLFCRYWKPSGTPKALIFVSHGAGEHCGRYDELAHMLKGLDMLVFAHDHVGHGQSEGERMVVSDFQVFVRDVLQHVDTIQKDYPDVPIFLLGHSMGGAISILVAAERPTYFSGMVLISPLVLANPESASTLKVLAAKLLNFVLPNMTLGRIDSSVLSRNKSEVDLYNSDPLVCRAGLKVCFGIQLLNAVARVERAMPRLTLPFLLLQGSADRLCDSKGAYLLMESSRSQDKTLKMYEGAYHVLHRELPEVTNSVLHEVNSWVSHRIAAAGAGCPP
The experiment is described as follows: In vitro competitive activity-based protein profiling, mouse brain proteome (MGLL). The format is biochemical. The arrangement: IC50 MGLL Brain (Mouse, μM): scale not given here. Particulars: for % Inh MGLL Brain (Mouse, μM): concentration not given (μM).

Another experiment addresses T2, ABHD6 (Mus musculus, UniProt Q8R2Y0).
T2 construct: Brain; from tissue; host or cells: mouse brain proteome
T2 sequence (Q8R2Y0 1-336): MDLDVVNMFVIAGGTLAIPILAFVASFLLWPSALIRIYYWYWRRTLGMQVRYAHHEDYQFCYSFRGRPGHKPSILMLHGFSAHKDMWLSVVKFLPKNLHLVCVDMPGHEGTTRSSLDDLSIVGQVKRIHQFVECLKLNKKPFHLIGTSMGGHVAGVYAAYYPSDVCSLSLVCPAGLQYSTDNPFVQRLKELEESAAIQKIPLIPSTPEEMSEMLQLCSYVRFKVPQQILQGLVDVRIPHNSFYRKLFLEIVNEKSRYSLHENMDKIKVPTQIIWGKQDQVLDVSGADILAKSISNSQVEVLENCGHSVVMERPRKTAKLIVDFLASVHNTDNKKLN
The experiment is described as follows: In vitro competitive activity-based protein profiling, mouse brain proteome (ABHD6). The format is biochemical. As to conditions: for % Inh ABHD6 Brain (Mouse, μM): mouse brain proteome, concentration not given (μM). How it is done: [The source words this procedure for another target and reports this target under the same test.] In Vitro Competitive Activity-Based Protein Profiling.
Proteomes (human prefrontal cortex or cell membrane fractions) (50 μL, 1.0 mg/mL total protein concentration) were preincubated with varying concentrations of inhibitors at 37° C. After 30 min, FP-Rh or HT-01 (1.0 μL, 50 μM in DMSO) was added and the mixture was incubated for another 30 min at room temperature. Reactions were quenched with SDS loading buffer (15 μL-4×) and run on SDS-PAGE.

Take `CC(=O)N1CCCc2cccc(CN3CC4(CCN(C(=O)OC(C(F)(F)F)C(F)(F)F)CC4)C3)c21` [Example 15, 1,1,1,3,3,3-Hexafluoropropan-2-yl 2-((1-acetyl-1,2,3,4-tetrahydroquinolin-8-yl)methyl)-2,7-diazaspiro[3.5]nonane-7-carboxylate]: on MGLL, the “IC50 MGLL Brain (Mouse, μM)” value was “* * *” and the “% Inh MGLL Brain (Mouse, μM)” value is given as “### (### is ≥75%)”. Also, the “% Inh ABHD6 Brain (Mouse, μM)” value on ABHD6 was “### (### is ≥75%)”.

Turning to `CCN1CCCc2cccc(CN3CC4(CCN(C(=O)OC(C(F)(F)F)C(F)(F)F)CC4)C3)c21` [Example 16, 1,1,1,3,3,3-Hexafluoropropan-2-yl 2-((1-ethyl-1,2,3,4-tetrahydroquinolin-8-yl)methyl)-2,7-diazaspiro[3.5]nonane-7-carboxylate], at MGLL, the “IC50 MGLL Brain (Mouse, μM)” value is on record as “* * *” and the “% Inh MGLL Brain (Mouse, μM)” value was “### (### is ≥75%)”. The “% Inh ABHD6 Brain (Mouse, μM)” value on ABHD6 was “### (### is ≥75%)”.

As to `O=C(OC(C(F)(F)F)C(F)(F)F)N1CC2(CCN(Cc3ccc(N4CCCC4)cc3)CC2)C1` [Example 17, 1,1,1,3,3,3-hexafluoropropan-2-yl 7-(4-(pyrrolidin-1-yl)benzyl)-2,7-diazaspiro[3.5]nonane-2-carboxylate], the “% Inh MGLL Brain (Mouse, μM)” value on MGLL is “### (### is ≥75%)”. At ABHD6, the “% Inh ABHD6 Brain (Mouse, μM)” value is on record as “### (### is ≥75%)”.

For the compound `O=C(OC(C(F)(F)F)C(F)(F)F)N1CC2(CCN(Cc3ccc(CN4CCOCC4)cc3)CC2)C1` [Example 18, 1,1,1,3,3,3-Hexafluoropropan-2-yl 7-(4-(morpholinomethyl)benzyl)-2,7-diazaspiro[3.5]nonane-2-carboxylate], the “% Inh MGLL Brain (Mouse, μM)” value at MGLL is “## (## is between 25 and 75%)”. The “% Inh ABHD6 Brain (Mouse, μM)” value at ABHD6 is “### (### is ≥75%)”.

`Cc1cc(-c2ccccc2)ccc1CN1CCC2(CC1)CN(C(=O)OC(C(F)(F)F)C(F)(F)F)C2` [Example 19, 1,1,1,3,3,3-Hexafluoropropan-2-yl 7-((3-methyl-[1,1′-biphenyl]-4-yl)methyl)-2,7-diazaspiro[3.5]nonane-2-carboxylate]: at MGLL, the “% Inh MGLL Brain (Mouse, μM)” value is “## (## is between 25 and 75%)”. Also, at ABHD6, the “% Inh ABHD6 Brain (Mouse, μM)” value is recorded as “### (### is ≥75%)”.

On to `O=C(OC(C(F)(F)F)C(F)(F)F)N1CCC2(CCN(Cc3ccc(Cl)cc3N3CCC(F)CC3)CC2)C1` [Example 28, 1,1,1,3,3,3-Hexafluoropropan-2-yl 8-(4-chloro-2-(4-fluoropiperidin-1-yl)benzyl)-2,8-diazaspiro[4.5]decane-2-carboxylate], for which, at MGLL, the “IC50 MGLL Brain (Mouse, μM)” value is recorded as “* * *” and the “% Inh MGLL Brain (Mouse, μM)” value was “### (### is ≥75%)”. Further, the “% Inh ABHD6 Brain (Mouse, μM)” value on ABHD6 is “# (# is ≤25%)”.

Consider `CC(=O)N1CCC2(CC1)CCN(c1cc(Cl)ccc1CN1CCN(C(=O)OC(C(F)(F)F)C(F)(F)F)CC1)C2` [Example 29, 1,1,1,3,3,3-Hexafluoropropan-2-yl 4-(2-(8-acetyl-2,8-diazaspiro[4.5]decan-2-yl)-4-chlorobenzyl)piperazine-1-carboxylate], for which, on MGLL, the “IC50 MGLL Brain (Mouse, μM)” value is “* * *” and the “% Inh MGLL Brain (Mouse, μM)” value is “### (### is ≥75%)”. Further, the “% Inh ABHD6 Brain (Mouse, μM)” value on ABHD6 is “# (# is ≤25%)”.

`CS(=O)(=O)N1CCC2(CCN(c3cc(Cl)ccc3CN3CCN(C(=O)OC(C(F)(F)F)C(F)(F)F)CC3)C2)CC1` [Example 30, 1,1,1,3,3,3-Hexafluoropropan-2-yl 4-(4-chloro-2-(8-(methylsulfonyl)-2,8-diazaspiro[4.5]decan-2-yl)benzyl)piperazine-1-carboxylate]: on MGLL, the “IC50 MGLL Brain (Mouse, μM)” value is recorded as “* * *” and the “% Inh MGLL Brain (Mouse, μM)” value is given as “### (### is ≥75%)”. Moreover, the “% Inh ABHD6 Brain (Mouse, μM)” value at ABHD6 is given as “# (# is ≤25%)”.

For the compound `CCN1CCCc2cccc(CN3CCC4(CC3)CN(C(=O)OC(C(F)(F)F)C(F)(F)F)C4)c21` [Example 31, 1,1,1,3,3,3-Hexafluoropropan-2-yl 7-((1-ethyl-1,2,3,4-tetrahydroquinolin-8-yl)methyl)-2,7-diazaspiro[3.5]nonane-2-carboxylate], the “% Inh MGLL Brain (Mouse, μM)” value on MGLL was “## (## is between 25 and 75%)”. In addition, on ABHD6, the “% Inh ABHD6 Brain (Mouse, μM)” value was “### (### is ≥75%)”.

For `O=C(OC(C(F)(F)F)C(F)(F)F)N1CCC2(CC1)CN(Cc1ccc(Cl)cc1N1CCCC1)C2` [Example 34], on MGLL, the “% Inh MGLL Brain (Mouse, μM)” value is recorded as “### (### is ≥75%)”. For the same compound, on ABHD6, the “% Inh ABHD6 Brain (Mouse, μM)” value is “### (### is ≥75%)”.

As for `O=C(OC(C(F)(F)F)C(F)(F)F)N1CCC2(CC1)CN(Cc1ccc(C(F)(F)F)cc1N1CCCCC1)C2` [Example 35], the “% Inh MGLL Brain (Mouse, μM)” value on MGLL is recorded as “### (### is ≥75%)”. The “% Inh ABHD6 Brain (Mouse, μM)” value on ABHD6 is “## (## is between 25 and 75%)”.

Turning to `O=C(OC(C(F)(F)F)C(F)(F)F)N1CCC2(CC1)CN(Cc1ccc(C(F)(F)F)cc1N1CCOCC1)C2` [Example 36, 1,1,1,3,3,3-Hexafluoropropan-2-yl 2-(2-morpholino-4-(trifluoromethyl)benzyl)-2,7-diazaspiro[3.5]nonane-7-carboxylate], the “% Inh MGLL Brain (Mouse, μM)” value on MGLL is given as “### (### is ≥75%)”. At ABHD6, the “% Inh ABHD6 Brain (Mouse, μM)” value is “### (### is ≥75%)”.

`O=C(OC(C(F)(F)F)C(F)(F)F)N1CC2(CCN(Cc3ccc(Cl)cc3N3CCOCC3)CC2)C1` [Example 37, 1,1,1,3,3,3-Hexafluoropropan-2-yl 7-(4-chloro-2-morpholinobenzyl)-2,7-diazaspiro[3.5]nonane-2-carboxylate]: the “% Inh MGLL Brain (Mouse, μM)” value at MGLL is on record as “### (### is ≥75%)”. Besides, the “% Inh ABHD6 Brain (Mouse, μM)” value at ABHD6 is “### (### is ≥75%)”.

Turning to `O=C(OC(C(F)(F)F)C(F)(F)F)N1CCC2(CC1)CN(Cc1ccc(Cl)cc1N1CCCCC1)C2` [Example 38, 1,1,1,3,33-Hexafluoropropan-2-yl 2-(4-chloro-2-(piperidin-1-yl)benzyl)-2,7-diazaspiro[3.5]nonane-7-carboxylate], the “% Inh MGLL Brain (Mouse, μM)” value on MGLL is recorded as “### (### is ≥75%)”. The “% Inh ABHD6 Brain (Mouse, μM)” value at ABHD6 was “## (## is between 25 and 75%)”.

As for `O=C(OC(C(F)(F)F)C(F)(F)F)N1CCC2(CC1)CN(Cc1ccc(Cl)cc1N1CCOCC1)C2` [Example 39, 1,1,1,3,3,3-Hexafluoropropan-2-yl 2-(4-chloro-2-morpholinobenzyl)-2,7-diazaspiro[3.5]nonane-7-carboxylate], the “% Inh MGLL Brain (Mouse, μM)” value at MGLL is reported as “### (### is ≥75%)”. At ABHD6, the “% Inh ABHD6 Brain (Mouse, μM)” value was “### (### is ≥75%)”.

In the case of `O=C(OC(C(F)(F)F)C(F)(F)F)N1CC2(CCN(Cc3ccc(C(F)(F)F)cc3N3CCOCC3)CC2)C1` [Example 40, 1,1,1,3,3,3-Hexafluoropropan-2-yl 7-(2-morpholino-4-(triiluoromethyl)benzyl)-2,7-diazaspiro[3.5]nonane-2-carboxylate], at MGLL, the “% Inh MGLL Brain (Mouse, μM)” value was “### (### is ≥75%)”. Further, the “% Inh ABHD6 Brain (Mouse, μM)” value at ABHD6 is listed as “### (### is ≥75%)”.

Turning to `O=C(OC(C(F)(F)F)C(F)(F)F)N1CCC2(CC1)CN(Cc1c(N3CCCCC3)cccc1C(F)(F)F)C2` [Example 41, 1,1,1,3,3,3-Hexafluoropropan-2-yl 2-(2-(piperidin-1-yl)-6-(trifluoromethyl)benzyl)-2,7-diazaspiro[3.5]nonane-7-carboxylate], the “% Inh MGLL Brain (Mouse, μM)” value on MGLL was “### (### is ≥75%)”. Moreover, the “% Inh ABHD6 Brain (Mouse, μM)” value on ABHD6 was “## (## is between 25 and 75%)”. On ABHD6 (mouse proteome), the IC50 is 100 to 1000 nM.

In the case of `O=C(OC(C(F)(F)F)C(F)(F)F)N1CCC2(CC1)CN(Cc1c(Cl)cccc1N1CCCC1)C2` [Example 42, 1,1,1,3,3,3-Hexafluoropropan-2-yl 2-(2-chloro-6-(pyrrolidin-1-yl)benzyl)-2,7-diazaspiro[3.5]nonane-7-carboxylate], the “% Inh MGLL Brain (Mouse, μM)” value at MGLL is “### (### is ≥75%)”. Moreover, at ABHD6, the “% Inh ABHD6 Brain (Mouse, μM)” value is “### (### is ≥75%)”.

As for `O=C(OC(C(F)(F)F)C(F)(F)F)N1CCC2(CC1)CN(Cc1c(N3CCOCC3)cccc1C(F)(F)F)C2` [Example 43, 1,1,1,3,3,3-Hexafluoropropan-2-yl 2-(2-morpholino-6-(trifluoromethyl)benzyl)-2,7-diazaspiro[3.5]nonane-7-carboxylate], the “% Inh MGLL Brain (Mouse, μM)” value on MGLL was “### (### is ≥75%)”. For the same compound, the “% Inh ABHD6 Brain (Mouse, μM)” value at ABHD6 was “## (## is between 25 and 75%)”.

On to `CS(=O)(=O)N1CCN(c2cccc(Cl)c2CN2CC3(CCN(C(=O)OC(C(F)(F)F)C(F)(F)F)CC3)C2)CC1` [Example 44, 1,1,1,3,3,3-Hexafluoropropan-2-yl 2-(2-chloro-6-(4-(methylsulfonyl)piperazin-1-yl)benzyl)-2,7-diazaspiro[3.5]nonane-7-carboxylate], for which the “% Inh MGLL Brain (Mouse, μM)” value on MGLL is given as “### (### is ≥75%)”. Besides, the “% Inh ABHD6 Brain (Mouse, μM)” value at ABHD6 is “### (### is ≥75%)”.

Regarding `CCN1CCC2(CCN(c3cc(Cl)cc(CN4CCCC45CN(C(=O)OC(C(F)(F)F)C(F)(F)F)C5)c3)CC2)C1` [Example 235, 1,1,1,3,3,3-Hexafluoropropan-2-yl 5-(3-chloro-5-(2-ethyl-2,8-diazaspiro[4.5]decan-8-yl)benzyl)-2,5-diazaspiro[3.4]octane-2-carboxylate], the “% Inh ABHD6 Brain (Mouse, μM)” value on ABHD6 is on record as “### (### is ≥75%)”.

One may read the IC50 as the midpoint of a concentration-inhibition curve.
